Laboratory results published in US9029367B2, “BACE inhibitors” (Eli Lilly and Company, priority 2013, dated 2015).
Where a name gives a salt, the structure may show the parent alone. Read-outs that look alike come from different tables or passages of the source.

Assays:
[1] = tested on: Abeta 1-x peptide levels in brain of young female PDAPP mice; assay: In vivo Inhibition of Beta-Secretase (brain Abeta 1-x in PDAPP mice); set-up: species or system mouse; details: three hours after dosing, compared to vehicle-treated mice
Description: Several animal models, including mouse, guinea pig, dog, and monkey, may be used to screen for inhibition of beta-secretase activity in vivo following compound treatment Animals used in this invention can be wild type, transgenic, or gene knockout animals. […] One to twenty-four hours following the administration of compound, animals are sacrificed, and brains are removed for analysis of Abeta 1-x. “Abeta 1-x” as used herein refers to the sum of Abeta species that begin with residue 1 and end with a C-terminus greater than residue 28. This detects the majority of Abeta species and is often called “total Abeta”. Total Abeta peptides (Abeta 1-x) levels are measured by a sandwich ELISA, using monoclonal 266 as a capture antibody and biotinylated 3D6 as reporting antibody. (See May, et al., Journal of Neuroscience, 31, 16507-16516 (2011)).
For acute studies, compound or appropriate vehicle is administered and animals are sacrificed at about 3 hours after dosing. Brain tissue, is obtained from selected animals and analyzed for the presence of Abeta 1-x. After chronic dosing brain tissues of older APP transgenic animals may also be analyzed for the amount of beta-amyloid plaques following compound treatment.

human BACE1 (1-460):Fc = human BACE1 (1-460):Fc (Homo sapiens (Human), UniProt P56817); assay: BACE1 FRET Assay; type: biochemical; details: purified recombinant huBACE1:Fc, FRET substrate, pH 4.6; Mean ± SEM
Protocol: For in vitro enzymatic and cellular assays, test compounds are prepared in DMSO to make up a 10 mM stock solution. The stock solution is serially diluted in DMSO to obtain a ten-point dilution curve with final compound concentrations ranging from 10 μM to 0.05 nM in a 96-well round-bottom plate before conducting the in vitro enzymatic and whole cell assays.
Human BACE1 (accession number: AF190725) is cloned from total brain cDNA by RT-PCR. The nucleotide sequences corresponding to amino acid sequences #1 to 460 are inserted into the cDNA encoding human IgG1 (Fc) polypeptide (Vassar et al., Science, 286, 735-742 (1999)). This fusion protein of BACE1 (1-460) and human Fc, named huBACE1:Fc, is constructed into the pJB02 vector. Human BACE1 (1-460):Fc (huBACE1:Fc) is transiently expressed in HEK293 cells. 250 μg cDNA of each construct is mixed with Fugene 6 and added to 1 liter HEK293 cells. Four days after the transfection, conditioned media are harvested for purification. huBACE1:Fc is purified by Protein A chromatography. The enzyme is stored at −80° C. in small aliquots. (See Yang, et. al., J. Neurochemistry, 91(6) 1249-59 (2004)
Serial dilutions of test compounds are prepared as described above. Compounds are further diluted 20× in KH2PO4 buffer. Ten μL of each dilution is added to each well on row A to H of a corresponding low protein binding black plate containing the reaction mixture (25 μL of 50 mM KH2PO4, pH 4.6, 1 mM TRITON® X-100, 1 mg/mL Bovine Serum Albumin, and 15 μM of FRET substrate) (See Yang, et. al., J. Neurochemistry, 91(6) 1249-59 (2004)). The content is mixed well on a plate shaker for 10 minutes. Fifteen μL of two hundred pM human BACE1 (1-460):Fc (See Vasser, et al., Science, 286, 735-741 (1999)) in the KH2PO4 buffer is added to the plate containing substrate and test compounds to initiate the reaction. The RFU of the mixture at time 0 is recorded at excitation wavelength 355 nm and emission wavelength 460 nm, after brief mixing on a plate shaker. The reaction plate is covered with aluminum foil and kept in a dark humidified oven at room temperature for 16 to 24 h. The RFU at the end of incubation is recorded with the same excitation and emission settings used at time 0. The difference of the RFU at time 0 and the end of incubation is representative of the activity of BACE1 under the compound treatment. RFU differences are plotted versus inhibitor concentration and a curve is fitted with a four-parameter logistic equation to obtain the IC50 values. (May, et al., Journal of Neuroscience, 31, 16507-16516 (2011)).

[2] = tested on: Abeta released by primary cortical neurons from PDAPP transgenic embryonic mice; assay: PDAPP Primary Neuronal Assay (Abeta 1-40 and 1-42 sandwich ELISAs); type: cell-based; details: Mus musculus, Primary cortical neuron, 24 h incubation
Protocol: For in vitro enzymatic and cellular assays, test compounds are prepared in DMSO to make up a 10 mM stock solution. […] A confirmatory whole cell assay is also run in primary neuronal cultures generated from PDAPP transgenic embryonic mice (May, et al., Journal of Neuroscience, 31, 16507-16516 (2011)). Primary cortical neurons are prepared from Embryonic Day 16 PDAPP embryos and cultured in 96 well plates (15×10^4 cells/well in DMEM/F12 (1:1) plus 10% FBS). After 2 days in vitro, culture media is replaced with serum free DMEM/F12 (1:1) containing B27 supplement and 2 μM (final) of Ara-C (Sigma, C1768). At day 5 in vitro, neurons are incubated at 37° C. for 24 h in the presence/absence of inhibitors (diluted in DMSO) at the desired concentration. […] Natl. Acad. Sci. USA 94, 1550-1555 (1997)). The concentration of Abeta released in the conditioned media following the compound treatment corresponds to the activity of BACE1 under such conditions.

[3] = Abeta 1-40, Mean ± SEM, read-out: PDAPP Neuron A-beta (1-40) ELISA IC50
[4] = Abeta 1-42, Mean ± SEM, read-out: PDAPP Neuron A-beta (1-42) ELISA IC50

human BACE1 (1-460):Fc, sequence (P56817 22-460): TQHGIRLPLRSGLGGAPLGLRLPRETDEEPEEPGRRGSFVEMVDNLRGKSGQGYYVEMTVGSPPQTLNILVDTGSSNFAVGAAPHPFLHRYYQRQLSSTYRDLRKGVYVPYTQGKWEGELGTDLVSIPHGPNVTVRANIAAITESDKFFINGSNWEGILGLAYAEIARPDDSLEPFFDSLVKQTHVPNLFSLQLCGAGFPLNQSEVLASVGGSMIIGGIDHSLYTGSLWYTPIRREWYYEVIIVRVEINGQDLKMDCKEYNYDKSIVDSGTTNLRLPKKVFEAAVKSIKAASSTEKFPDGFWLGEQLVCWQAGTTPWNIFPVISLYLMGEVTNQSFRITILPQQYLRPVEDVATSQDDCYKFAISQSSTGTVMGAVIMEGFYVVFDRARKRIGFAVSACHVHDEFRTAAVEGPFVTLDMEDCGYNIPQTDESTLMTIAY

| Structure (SMILES) | Abeta 1-x peptide levels reduced in brain hippocampus ([1]; 10 mg/kg oral dose) | IC50 (human BACE1 (1-460):Fc) | IC50 [2, 3] | IC50 [2, 4] | Abeta 1-x peptide levels reduced in brain cortex ([1]; 30 mg/kg oral dose) | Abeta 1-x peptide levels reduced in brain hippocampus ([1]; 30 mg/kg oral dose) | Abeta 1-x peptide levels reduced in brain cortex ([1]; 10 mg/kg oral dose) |
| --- | --- | --- | --- | --- | --- | --- | --- |
| Cl.N#Cc1ccc(C(=O)Nc2ccc(F)c([C@]34COC[C@@]3(F)COC(N)=N4)c2)nc1 [Example 34, N-[3-[(4aR,7aS)-2-Amino-4a-fluoro-5,7-dihydro-4H-furo[3,4-d][1,3]oxazin-7a-yl]-4-fluoro-phenyl]-5-cyano-pyridine-2-carboxamide hydrochloride] | approximately 26% | 45 nM | 49.9 nM | 36.5 nM | – | – | – |
| NC1=N[C@@]2(c3cc(NC(=O)c4cnc(OCC5(F)CC5)cn4)ccc3F)COC[C@@]2(F)CO1 [Example 57, N-[3-[(4aR,7aS)-2-Amino-4a-fluoro-5,7-dihydro-4H-furo[3,4-d][1,3]oxazin-7a-yl]-4-fluoro-phenyl]-5-[(1-fluorocyclopropyl)methoxy]pyrazine-2-carboxamide hydrochloride] | – | 25.7 nM | 186 nM | 182 nM | – | – | – |
| Cl.NC1=N[C@@]2(c3cc(NC(=O)c4ccc(F)cn4)ccc3F)COC[C@@]2(F)CS1 [Example 1, N-[3-[(4aR,7aS)-2-Amino-4a-fluoro-5,7-dihydro-4H-furo[3,4-d][1,3]thiazin-7a-yl]-4-fluoro-phenyl]-5-fluoro-pyridine-2-carboxamide hydrochloride] | – | 15.6 nM | 83.3 nM | 76.8 nM | approximately 48% | approximately 37% | – |
| Cl.N#Cc1ccc(C(=O)Nc2ccc(F)c([C@]34COC[C@@]3(F)CSC(N)=N4)c2)nc1 [Example 3, N-[3-[(4aR,7aS)-2-Amino-4a-fluoro-5,7-dihydro-4H-furo[3,4-d][1,3]thiazin-7a-yl]-4-fluoro-phenyl]-5-cyano-pyridine-2-carboxamide hydrochloride] | approximately 34% | 6.66 nM | 20.2 nM | 16.3 nM | – | – | approximately 46% |
| COc1cnc(C(=O)Nc2ccc(F)c([C@]34COC[C@@]3(F)CSC(N)=N4)c2)cn1.Cl [Example 2, N-[3-[(4aR,7aS)-2-Amino-4a-fluoro-5,7-dihydro-4H-furo[3,4-d][1,3]thiazin-7a-yl]-4-fluoro-phenyl]-5-methoxy-pyrazine-2-carboxamide hydrochloride] | approximately 40% | – | 29.5 nM | 21.9 nM | approximately 54% | approximately 52% | approximately 45% |
